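Tested at 5 concentrations; 48 h exposure; 96-well plates; endpoints linearly interpolated, else capped at highest concentration. TGI is the concentration that stops growth completely.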
How the values were obtained:
Test in all cases: growth of human tumour cells (NCI), 48 h
HCC-2998 colon = system: HCC-2998 colon
SW-620 colon = system: SW-620 colon
HOP-92 NSCLC = system: HOP-92 NSCLC
MALME-3M melanoma = system: MALME-3M melanoma
EKVX NSCLC = system: EKVX NSCLC
SF-295 CNS = system: SF-295 CNS
DU-145 prostate = system: DU-145 prostate
HOP-62 NSCLC = system: HOP-62 NSCLC
SK-MEL-28 melanoma = system: SK-MEL-28 melanoma
MDA-MB-231 breast = system: MDA-MB-231 breast
OVCAR-5 ovarian = system: OVCAR-5 ovarian
OVCAR-3 ovarian = system: OVCAR-3 ovarian
A549 NSCLC = system: A549 NSCLC
MDA-MB-435 = system: MDA-MB-435
SK-MEL-5 melanoma = system: SK-MEL-5 melanoma
PC-3 prostate = system: PC-3 prostate
SK-OV-3 ovarian = system: SK-OV-3 ovarian
786-0 renal = system: 786-0 renal
A498 renal = system: A498 renal
NCI/ADR-RES ovarian = system: NCI/ADR-RES ovarian
IGROV1 ovarian = system: IGROV1 ovarian
SNB-19 CNS = system: SNB-19 CNS
SF-268 CNS = system: SF-268 CNS
RPMI-8226 leukemia = system: RPMI-8226 leukemia
OVCAR-4 ovarian = system: OVCAR-4 ovarian
MDA-N = system: MDA-N
TK-10 renal = system: TK-10 renal
UO-31 renal = system: UO-31 renal
UACC-62 melanoma = system: UACC-62 melanoma
MOLT-4 leukemia = system: MOLT-4 leukemia
CCRF-CEM leukemia = system: CCRF-CEM leukemia
RXF 393 renal = system: RXF 393 renal
HL-60(TB) leukemia = system: HL-60(TB) leukemia
HS 578T breast = system: HS 578T breast
LOX IMVI melanoma = system: LOX IMVI melanoma
COLO 205 colon = system: COLO 205 colon
T-47D breast = system: T-47D breast
NCI-H522 lung = system: NCI-H522 lung
NCI-H226 lung = system: NCI-H226 lung
NCI-H460 lung = system: NCI-H460 lung
M14 melanoma = system: M14 melanoma
MCF7 breast = system: MCF7 breast
HT29 colon = system: HT29 colon
SK-MEL-2 melanoma = system: SK-MEL-2 melanoma
SN12C renal = system: SN12C renal
ACHN renal = system: ACHN renal
UACC-257 melanoma = system: UACC-257 melanoma
SF-539 CNS = system: SF-539 CNS
U251 CNS = system: U251 CNS
KM12 colon = system: KM12 colon
CAKI-1 renal = system: CAKI-1 renal
HCT-15 colon = system: HCT-15 colon
BT-549 breast = system: BT-549 breast
NCI-H23 lung = system: NCI-H23 lung
HCT-116 colon = system: HCT-116 colon
OVCAR-8 ovarian = system: OVCAR-8 ovarian
SNB-75 CNS = system: SNB-75 CNS
SR leukemia = system: SR leukemia
K-562 leukemia = system: K-562 leukemia

Measured: TGI

C=CCCCCOC1C=CC(OC(C)=O)C(COC(C)=O)O1 (centres undefined)
> 100 µM: HCC-2998 colon | SW-620 colon | HOP-92 NSCLC | MALME-3M melanoma | EKVX NSCLC | SF-295 CNS | DU-145 prostate | HOP-62 NSCLC | SK-MEL-28 melanoma | MDA-MB-231 breast | OVCAR-5 ovarian | OVCAR-3 ovarian | A549 NSCLC | MDA-MB-435 | SK-MEL-5 melanoma | PC-3 prostate | SK-OV-3 ovarian | 786-0 renal | A498 renal | NCI/ADR-RES ovarian | IGROV1 ovarian | SNB-19 CNS | SF-268 CNS | RPMI-8226 leukemia | OVCAR-4 ovarian | MDA-N | TK-10 renal | UO-31 renal | UACC-62 melanoma | MOLT-4 leukemia | CCRF-CEM leukemia | RXF 393 renal | HL-60(TB) leukemia | HS 578T breast | LOX IMVI melanoma | COLO 205 colon | T-47D breast | NCI-H522 lung | NCI-H226 lung | NCI-H460 lung | M14 melanoma | MCF7 breast | HT29 colon | SK-MEL-2 melanoma | SN12C renal | ACHN renal | UACC-257 melanoma | SF-539 CNS | U251 CNS | KM12 colon | CAKI-1 renal | HCT-15 colon | BT-549 breast | NCI-H23 lung | HCT-116 colon | OVCAR-8 ovarian

Cc1ccnc(NS(=O)(=O)c2ccc(NC(=O)c3ccc4nc5ccccc5c(Nc5ccc(S(=O)(=O)Nc6nccc(C)n6)cc5)c4c3)cc2)n1
95.6 µM: OVCAR-3 ovarian
39.5 µM: SK-MEL-2 melanoma
41.7 µM: U251 CNS
> 100 µM: HCC-2998 colon | SW-620 colon | MALME-3M melanoma | SNB-75 CNS | EKVX NSCLC | SF-295 CNS | DU-145 prostate | HOP-62 NSCLC | SK-MEL-28 melanoma | MDA-MB-231 breast | OVCAR-5 ovarian | A549 NSCLC | MDA-MB-435 | SK-MEL-5 melanoma | PC-3 prostate | SK-OV-3 ovarian | 786-0 renal | NCI/ADR-RES ovarian | IGROV1 ovarian | SNB-19 CNS | SF-268 CNS | RPMI-8226 leukemia | OVCAR-4 ovarian | MDA-N | TK-10 renal | UO-31 renal | UACC-62 melanoma | MOLT-4 leukemia | CCRF-CEM leukemia | HL-60(TB) leukemia | HS 578T breast | LOX IMVI melanoma | COLO 205 colon | T-47D breast | NCI-H226 lung | NCI-H460 lung | M14 melanoma | HT29 colon | K-562 leukemia | SN12C renal | ACHN renal | UACC-257 melanoma | SF-539 CNS | KM12 colon | CAKI-1 renal | HCT-15 colon | NCI-H23 lung | HCT-116 colon | OVCAR-8 ovarian
51.2 µM: RXF 393 renal
75.1 µM: MCF7 breast
55.6 µM: SR leukemia
87.4 µM: NCI-H522 lung
32.6 µM: BT-549 breast
55.4 µM: HOP-92 NSCLC

C=C1c2nc3ccccc3n2C=C(c2ccc(Cl)cc2)N1c1ccc(OCCN2CCOCC2)cc1
> 100 µM: HCC-2998 colon | SW-620 colon | HOP-92 NSCLC | MALME-3M melanoma | SNB-75 CNS | DU-145 prostate | HOP-62 NSCLC | SK-MEL-28 melanoma | MDA-MB-231 breast | OVCAR-5 ovarian | OVCAR-3 ovarian | A549 NSCLC | MDA-MB-435 | PC-3 prostate | SK-OV-3 ovarian | 786-0 renal | A498 renal | NCI/ADR-RES ovarian | IGROV1 ovarian | SNB-19 CNS | SF-268 CNS | OVCAR-4 ovarian | MDA-N | TK-10 renal | UO-31 renal | RXF 393 renal | HS 578T breast | LOX IMVI melanoma | T-47D breast | NCI-H226 lung | NCI-H460 lung | MCF7 breast | HT29 colon | K-562 leukemia | SN12C renal | ACHN renal | SF-539 CNS | U251 CNS | KM12 colon | HCT-15 colon | BT-549 breast | NCI-H23 lung | HCT-116 colon
98.6 µM: COLO 205 colon
99.6 µM: UACC-62 melanoma
35 µM: HL-60(TB) leukemia
71.5 µM: SK-MEL-5 melanoma
58.8 µM: M14 melanoma
29.1 µM: SK-MEL-2 melanoma
10.9 µM: RPMI-8226 leukemia
90.3 µM: UACC-257 melanoma
42 µM: SR leukemia

O=C(CC(=O)c1ccncc1)c1ccccc1
> 89.2 µM: MALME-3M melanoma
> 100 µM: HCC-2998 colon | SW-620 colon | HOP-92 NSCLC | SNB-75 CNS | EKVX NSCLC | SF-295 CNS | SR leukemia | DU-145 prostate | HOP-62 NSCLC | SK-MEL-28 melanoma | MDA-MB-231 breast | OVCAR-5 ovarian | OVCAR-3 ovarian | A549 NSCLC | MDA-MB-435 | SK-MEL-5 melanoma | PC-3 prostate | SK-OV-3 ovarian | 786-0 renal | A498 renal | IGROV1 ovarian | SNB-19 CNS | SF-268 CNS | RPMI-8226 leukemia | OVCAR-4 ovarian | MDA-N | TK-10 renal | UO-31 renal | UACC-62 melanoma | MOLT-4 leukemia | RXF 393 renal | HS 578T breast | LOX IMVI melanoma | COLO 205 colon | T-47D breast | NCI-H522 lung | NCI-H226 lung | NCI-H460 lung | M14 melanoma | MCF7 breast | HT29 colon | SK-MEL-2 melanoma | K-562 leukemia | ACHN renal | UACC-257 melanoma | SF-539 CNS | U251 CNS | KM12 colon | CAKI-1 renal | HCT-15 colon | BT-549 breast | NCI-H23 lung | HCT-116 colon | OVCAR-8 ovarian
69.3 µM: NCI/ADR-RES ovarian
> 41.8 µM: CCRF-CEM leukemia
> 62.5 µM: SN12C renal

From PubChem BioAssay (NCI)
